Data reported in US9221875B2, “Amphiphilic peptides for treatment of keratitis” (Agency for Science, Technology and Research, priority 2013, dated 2015).
Converted amounts (≈) assume the structure as drawn. Like-named read-outs stand apart in the source and are kept apart here. Marks after values point to notes of the source that are not given here. Peptide text beside a SMILES is read from it.

Legend:
[1] = Acute in vivo toxicity, intravenous tail vein injection; conditions: mouse, mice
Description: For the β-sheet forming peptides to qualify as suitable therapeutic candidates, their antimicrobial activities should be considered in the light of their selectivity for microbial cell membranes so as to minimize toxicities towards mammalian cells. […] The selectivity indices (SIs) of the peptides were further evaluated as a comparison of the safety and efficacies of the different peptide sequences (Table 2). SIs of the various peptides were calculated as the ratio of the HC10 value (defined as the lowest peptide concentration that induces 10% or more haemolysis) to the GM (geometric mean MICs of the 5 microbial strains tested). […] The acute in vivo toxicity testing was performed via intravenous tail vein injection of solutions containing representative peptides of n=2 [(IRIK)2-NH2 (SEQ ID NO: 17)] and n=3 [(IRVK)3-NH2 (SEQ ID NO: 22)] repeat units in mice.

S. aureus [2] = conditions: 18 h
C. albicans keratitis = test: Contact lens-associated C. albicans keratitis mouse model
[3] = system: Vancomycin-resistant Enterococci; conditions: clinical isolate
trypsin and proteinase K = assay type: in vitro ADME
Description: One of the major factors limiting the clinical utility of AMPs lies in their instability to rapid degradation by proteases which are present abundantly in biological fluids and/or secreted by microorganisms. In order to evaluate the proteolytic stability of the designed β-sheet forming peptides, the D- and L-isoforms of the n=2 peptide sequence (IK8-all D or IK8-all L, respectively) were treated with the broad spectrum serine proteases, trypsin and proteinase K, for 6 h and evaluated their antimicrobial activities against S. aureus, E. coli and P. aeruginosa. […] The structural integrity of synthetic peptides following treatment with both proteases was also evaluated using MALDI-TOF mass spectroscopy. […] The cleavage sites of both enzymes for the IK8-all L peptide are illustrated in FIG. 19a with the mass spectra peaks assigned to the major fragments.

P. aeruginosa [4] = test: MBC against clinical isolates; assay type: cell-based; conditions: clinical isolate
P. aeruginosa [5] = conditions: 18 h
S. aureus biofilms [6] = assay type: cell-based, Staphylococcus aureus; conditions: 24 h; for killing of S. aureus residing in biofilms: MIC, 4×MIC, 8×MIC
Description: The wells were then rinsed once with 100 μL of PBS to remove planktonic cells and loosely attached cells, and replenished with 100 μL of fresh broth. Biofilm formation was allowed to proceed up to 6-8 days with daily rinsing and media changes before use in experiments. […] Subsequently, the solutions were removed and 120 μL of activated XTT solution was added into each well. […] Relative cell viability was expressed as [(A490-[…])sample/(A490-[…])control]×100%.

C. neoformans = test: MBC against clinical isolates; assay type: cell-based; conditions: clinical isolate
E. coli and S. aureus = test: FE-SEM imaging of treated bacteria (Example 1); assay type: cell-based, Escherichia coli, Staphylococcus aureus; conditions: 2 h treatment
Description: E. coli suspension at ˜3×10^8 CFU ml^−1 (100 μL) was incubated with an equal volume of broth containing 20% (by volume) of water and a lethal dose (250 mg L^−1) of a representative peptide in a 96 well-plate for 2 h. Eight replicates of each condition was pooled into a microfuge tube, pelleted down at 5000×g for 5 min, and rinsed twice with PBS. The samples were then fixed with 4% formaldehyde at room temperature for 15 min, followed by rinsing with DI water. Dehydration of the cells was performed using a series of graded ethanol solutions (35, 50, 75, 90, 95 and 100%). The samples were allowed to air-dry, mounted on carbon table, and sputter coated with platinum for imaging with a FE-SEM setup (JEOL JSM-7400F, Japan).

[7] = system: Methicillin-resistant S. aureus; conditions: clinical isolate
S. aureus biofilms [8] = test: Biofilm biomass, crystal violet staining; assay type: cell-based, Staphylococcus aureus; conditions: MIC, 4×MIC, 8×MIC, 24 h
Description: The biomass of the biofilms was estimated by a crystal violet staining assay. Briefly, the formed biofilms were first treated with the peptides for 24 h as described above. After aspirating the culture medium, the biofilms were washed once with PBS, fixed with methanol for 15 min at room temperature and stained with 100 μL of 0.1% (weight by volume) crystal violet for 10 min. The excess crystal violet dye was removed by rinsing the wells with DI water for five times. The dye that is associated with the biofilm was extracted using 100 μL of 33% glacial acetic acid per well and quantified by measuring the absorbance at a wavelength of 570 nm using a microplate reader (TECAN, Switzerland). The relative amount of biomass remaining after peptide treatment was expressed as a percentage of the control treated with broth containing 10% (by volume) of water. Data represent mean±standard deviations of four replicates per concentration.

rabbit red blood cells = assay type: cell-based; conditions: red cells of rabbit, 1 h
E. coli [9] = conditions: 18 h
F. solani = assay type: cell-based; conditions: 24 h
Description: The MICs of peptides were determined against the fungi C. albicans (American Type Culture Collection, ATCC) and F. solani (ATCC) by the broth microdilution method. […] F. solani, were cultured on sabouraud dextrose agar plates in incubator at 37° C. To collect conidia following incubation, conidia of F. solani species were harvested and standardized to 1×10^8 spores/ml before performing the experiments. Sabouraud dextrose broth (90 μL) was added to the wells of culture plates. […] The plates were incubated at 37° C. and examined macroscopically after 24 h for the growth of F. solani. Appropriate control wells without any treatment were included in the study. Peptide were considered to be active if the wells appeared clear without any visible growth of F. solani, and the results were expressed as MIC. The assay was performed in four replicates for each concentration.

S. aureus [10] = conditions: 18 h; remark: listed apart in the source
S. epidermidis [11] = conditions: 18 h
[12] = system: 5 microorganisms tested (S. epidermidis, S. aureus, E. coli, P. aeruginosa, C. albicans); test: Mean MIC over the panel and selectivity index (Example 2)
P. aeruginosa [13] = conditions: 18 h; remark: listed apart in the source
E. coli [14] = conditions: 18 h; remark: listed apart in the source
C. albicans [15] = system: C. albicans
[16] = system: 5 microorganisms tested (S. epidermidis, S. aureus, E. coli, P. aeruginosa, C. albicans); test: Mean MIC over the panel and selectivity index (Example 1); assay type: cell-based
Description: Red blood cells suspension incubated with PBS was used as negative control.

C. albicans [17] = conditions: 42 h
S. epidermidis [18] = conditions: 18 h; remark: listed apart in the source
[19] = system: clinically isolated Mycobacterium tuberculosis
[20] = system: LPS-stimulated NO production in NR8383 rat macrophage cell line; test: Endotoxin neutralization assay (Griess nitrite); assay type: cell-based; conditions: 125 mg L^−1 peptide, 100 ng mL^−1 LPS, 18 h
Description: Untreated cells and cells that were stimulated with LPS alone served as the […] controls, respectively. The amount of NO produced was estimated by quantifying the concentration of the stable NO metabolite nitrite in the isolated supernatant fractions using the Griess reagent (1% sulphanilamide, 0.1% N-1-napthylethylenediamine dihydrochloride, 5% phosphoric acid) according to the manufacturer's protocol. The absorbance was measured at 540 nm and nitrite concentrations were determined using a standard reference curve prepared from known concentrations of NaNO2 solutions.

S. aureus [21] = assay type: cell-based, Staphylococcus aureus; conditions: passage 20
[22] = topical eye drops, peptides 3000 mg/L, amphotericin B 1000 mg/L

Compound	LD50 [1] [mg/kg]	MIC S. aureus (S. aureus [2]) [mg/L]	MBC Vancomycin-resistant Enterococci [3] [mg/L]	MBC P. aeruginosa (P. aeruginosa [4]) [mg/L]	MIC P aeruginosa (P. aeruginosa [5]) [mg/L]	killing of S. aureus residing in biofilms (S. aureus biofilms [6])	MBC C. neoformans (C. neoformans) [mg/L]	surface morphology under FE-SEM (E. coli and S. aureus)	MBC Methicillin-resistant S. aureus [7] [mg/L]	amount of biomass in the treated biofilms (S. aureus biofilms [8])	HC10, haemolysis concentration 10%: lowest peptide concentration that induces ≧10% haemolysis (rabbit red blood cells)	MIC E. coli (E. coli [9]) [mg/L]	MIC S. aureus (S. aureus [10]) [mg/L]	MIC S. epidermidis (S. epidermidis [11]) [mg/L]	GM, geometric mean of MIC values for the 5 microorganisms tested [12] [mg/L]	MIC P. aeruginosa (P. aeruginosa [13]) [mg/L]	MIC E. coli (E. coli [14]) [mg/L]	MIC C. albicans (C. albicans [15]) [mg/L]	GM, geometric mean of MIC values for the 5 microorganisms tested [16] [mg/L]	MIC C. albicans (C. albicans [17]) [mg/L]	other results
CC[C@H](C)[C@H](N)C(=O)N[C@@H](CCCNC(=N)N)C(=O)N[C@H](C(=O)N[C@@H](CCCCN)C(=O)N[C@H](C(=O)N[C@@H](CCCNC(=N)N)C(=O)N[C@H](C(=O)N[C@@H](CCCCN)C(N)=O)[C@@H](C)CC)[C@@H](C)CC)[C@@H](C)CC [(IRIK)2-NH2] (H-IRIKIRIK-NH2; N-terminus assumed)	35.2	62.5 (≈ 60.2 µM)	15.6 (≈ 15 µM)	7.8 (≈ 7.51 µM)	31.3 (≈ 30.1 µM)	dose-dependent killing	7.8 (≈ 7.51 µM)	rough and uneven	31.3 (≈ 30.1 µM)	reduced in a dose-dependent manner	2000 mg/L	15.6 (≈ 15 µM)	62.5 (≈ 60.2 µM)	3.9 (≈ 3.76 µM)	23.4	31.3 (≈ 30.1 µM)	15.6 (≈ 15 µM)	3.9 (≈ 3.76 µM)	23.4	3.9 (≈ 3.76 µM)	fungal cells eradicated from the biofilms compared to the untreated control group (C. albicans keratitis; C. albicans counts in mice cornea, agar plating): ~90%; depth of hyphal invasion into the cornea, PAS histology (C. albicans keratitis; [22]): reduced the maximal depth of hyphal invasion; resolution of the keratitis infection (eye appearance) (C. albicans keratitis; [22]): significant resolution of the keratitis infection; clinical scores of mice corneas (slit lamp) (C. albicans keratitis; topical eye drops, peptides 3000 mg/L, amphotericin B 1000 mg/L, P<0.01): significantly lower than that in the control group; antimicrobial activity after protease treatment (trypsin and proteinase K): complete loss in bacterial inhibitory activities; structural integrity after protease treatment, MALDI-TOF MS (trypsin and proteinase K): degradation of the intact peptide; cell viability of S. aureus in biofilms (S. aureus biofilms [6]; Staphylococcus aureus, 4 ×MIC): less than 10%; MIC F. solani (F. solani): 31.3 mg/L (≈ 30.1 µM); MBC A. baumanni (A. baumanni): 125 mg/L (≈ 120 µM); MIC S. epidermidis (S. epidermidis [18]): 3.9 mg/L (≈ 3.76 µM)
CC[C@H](C)[C@H](N)C(=O)N[C@@H](CCCNC(=N)N)C(=O)N[C@H](C(=O)N[C@@H](CCCCN)C(=O)N[C@H](C(=O)N[C@@H](CCCNC(=N)N)C(=O)N[C@H](C(=O)N[C@@H](CCCCN)C(=O)N[C@H](C(=O)N[C@@H](CCCNC(=N)N)C(=O)N[C@H](C(=O)N[C@@H](CCCCN)C(N)=O)C(C)C)[C@@H](C)CC)C(C)C)[C@@H](C)CC)C(C)C [(IRVK)3-NH2] (H-IRVKIRVKIRVK-NH2; N-terminus assumed)	35.2	31.3 (≈ 20.8 µM)	7.8 (≈ 5.18 µM)	15.6 (≈ 10.4 µM)	62.5 (≈ 41.5 µM)	dose-dependent killing	15.6 (≈ 10.4 µM)	rough and uneven	15.6 (≈ 10.4 µM)	reduced in a dose-dependent manner	>125^e) mg L^−1	15.6 (≈ 10.4 µM)	31.3 (≈ 20.8 µM)	2.0 (≈ 1.33 µM)	47.3	62.5 (≈ 41.5 µM)	15.6 (≈ 10.4 µM)	125 (≈ 82.9 µM)	47.3	125 (≈ 82.9 µM)	MIC M. tuberculosis ([19]; strain number 1140): 15.6 mg/L (≈ 10.4 µM); MIC M. tuberculosis ([19]; strain number 1146): >31.3 mg/L; nitrite concentration, LPS-stimulated NO production [20]: reduced to the control level; MBC A. baumanni (A. baumanni; clinical isolate, multidrug resistant): 15.6 mg/L (≈ 10.4 µM); MIC S. epidermidis (S. epidermidis [18]): 2.0 mg/L (≈ 1.33 µM)
CC1(C)S[C@@H]2[C@H](NC(=O)Cc3ccccc3)C(=O)N2[C@H]1C(=O)O [penicillin G, reference compound]	–	–	–	–	–	–	–	–	–	–	–	–	–	–	–	–	–	–	–	–	MICn/MIC0, fold increase in MIC (S. aureus [21]): 32
